From PubChem BioAssay (NCI)
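The compound was tested at five concentrations on cells cultured in 96-well plates, with a 48-hour exposure period. Here, GI50 denotes the concentration required for 50% inhibition of growth. The concentration for full growth arrest is given as TGI.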

Legend:
Test in all cases: inhibition of tumour cell growth, NCI panel, 48 h
A549 NSCLC = tested on: A549 NSCLC
CAKI-1 renal = tested on: CAKI-1 renal
LOX IMVI melanoma = tested on: LOX IMVI melanoma
SF-268 CNS = tested on: SF-268 CNS
SK-MEL-2 melanoma = tested on: SK-MEL-2 melanoma
SK-MEL-5 melanoma = tested on: SK-MEL-5 melanoma
SK-OV-3 ovarian = tested on: SK-OV-3 ovarian
SNB-75 CNS = tested on: SNB-75 CNS
SR leukemia = tested on: SR leukemia
T-47D breast = tested on: T-47D breast

Row | SMILES | TGI (A549 NSCLC) [µM] | TGI (CAKI-1 renal) [µM] | TGI (LOX IMVI melanoma) [µM] | TGI (SF-268 CNS) [µM] | TGI (SK-MEL-2 melanoma) [µM] | TGI (SK-MEL-5 melanoma) [µM] | TGI (SK-OV-3 ovarian) [µM] | TGI (SNB-75 CNS) [µM] | TGI (SR leukemia) [µM] | GI50 (CAKI-1 renal) [µM] | GI50 (LOX IMVI melanoma) [µM] | GI50 (SF-268 CNS) [µM] | GI50 (SK-MEL-5 melanoma) [µM] | GI50 (SK-OV-3 ovarian) [µM] | GI50 (SNB-75 CNS) [µM] | GI50 (A549 NSCLC) [µM] | GI50 (SK-MEL-2 melanoma) [µM] | GI50 (T-47D breast) [µM] | TGI (T-47D breast) [µM] | GI50 (SR leukemia) [µM]
1 | CCc1ccc(Cc2ccc(CC)c(NC(=O)C(=O)Cc3nc4ccccc4nc3C)c2CC)c(CC)c1NC(=O)C(=O)Cc1nc2ccccc2nc1C | > 100 | > 100 | > 100 | > 100 | > 100 | > 100 | > 100 | 44.4 |  |  |  |  |  |  |  |  |  |  |  | 
2 | COC(=O)C1=CC(=O)C(C(=O)Nc2ccc(OC)cc2)C(c2ccccc2)O1 (stereo not drawn) | > 72.9 | > 60 | > 72.9 | 37.3 | > 100 | > 73.7 | 53.5 | 43.1 | > 100 |  |  |  |  |  |  |  |  |  |  | 
3 | COc1ccc(CN(O)C2C(CO)OC(n3cc(I)c(=O)[nH]c3=O)C2O)cc1 (stereo not drawn) | > 100 | > 100 | > 100 | > 100 | > 100 | > 100 | > 100 | > 100 | > 100 |  |  |  |  |  |  |  |  |  |  | 
4 | CCS[C@H]1NC(=O)C1[C@H](C)O[Si](C)(C)C(C)(C)C (stereo partly drawn) | > 100 | > 100 | > 100 | > 100 | > 100 |  |  | > 100 |  |  |  |  |  |  |  |  |  |  |  | 
5 | c1ccc([CH2][Sn]([CH2]c2ccccc2)([S]c2cccc3cccnc23)[S]c2cccc3cccnc23)cc1 |  | 1.02 | 0.442 | 2.3 |  | 1.18 | 3.15 | 2.02 |  | 0.42 | 0.215 | 0.489 | 0.299 | 1.76 | 0.749 |  |  |  |  | 
6 | N#Cc1c([N+](=O)[O-])cc(C(F)(F)F)cc1[N+](=O)[O-] | 37.6 | 8.94 | 6.87 | 27.3 | 39.3 | 23.8 | 33.2 | 20.1 |  |  |  |  |  |  |  |  |  |  |  | 
7 | CC(=O)OC1COC(N2C(=O)C(=O)c3c(C)cc(Cl)nc32)C(OC(C)=O)C1OC(C)=O (stereo not drawn) | > 100 | > 100 | > 100 | > 100 | > 100 | > 100 |  | > 100 | > 100 |  |  |  |  |  |  |  |  |  |  | 
8 | CCOC(=O)c1cc2c(n1Cc1cccc(OC)c1)-c1oncc1CC2 | > 100 |  | > 100 | > 100 | > 100 | 11.3 | > 100 | 3.03 |  |  | 0.794 | 18 | 0.595 | 2.42 | 0.399 | 9.42 | 1.11 | 0.61 | 97.2 | 
9 | C[N+](C)(C)CC(=O)N/N=C(/C=C/c1ccccc1)CC1OC(=O)c2ccccc21 (stereo not drawn) | > 100 | > 100 | > 10 | > 100 | > 100 | > 100 | > 100 | > 100 |  |  |  |  |  |  |  |  |  |  |  | 
10 | O=C(c1ccccc1)c1nnn(Cc2cccc(Cl)c2)c1C(=O)c1ccccc1 | > 100 | > 100 | > 100 | > 100 | > 100 | > 100 | > 100 | > 100 | > 100 |  |  |  |  |  |  |  |  |  |  | 
11 | [N-]=[N+]=Nc1ccc(S(=O)(=O)Oc2cc(OS(=O)(=O)c3ccc(N=[N+]=[N-])cc3)cc(OS(=O)(=O)c3ccc(N=[N+]=[N-])cc3)c2)cc1 | > 100 | > 10 | > 100 | > 100 | > 100 | > 100 |  | > 10 | > 100 |  |  |  |  |  |  |  |  |  |  | 
12 | CCN(CC)CCN(C)CC(C)(C)C(=O)/C=C/c1ccccc1 | 47.2 | 28.7 | 24 | 27.2 | 24.2 | 27.3 | 26.6 | 18.3 | 45.5 |  |  |  |  |  |  |  |  |  |  | 
13 | C=CCCc1cc(OC)ccc1CN(C)C(C)(C)CO | > 100 | > 100 | > 100 | > 100 | > 100 | > 100 |  | > 100 | > 100 |  |  |  |  |  |  |  |  |  |  | 
14 | CN1CCC(O)C(CNC23CC4CC(CC(C4)C2)C3)C1 (stereo not drawn) | > 100 | > 100 | > 100 | > 100 | > 100 | > 100 | > 100 |  | > 100 |  |  |  |  |  |  |  |  |  |  | 
15 | Cc1c(C(=O)/C=C/c2ccco2)[n+](=O)c2ccccc2n1[O-] | > 100 | > 100 | > 100 | > 100 |  |  | > 100 | > 100 | > 100 |  |  |  |  |  |  |  |  |  |  | 
16 | CC(C)c1ccc2c(c1)CCC1C(C)(C)[C@@H](O)CC[C@]21C (stereo partly drawn) | > 100 | > 100 | 28.8 | > 100 |  | 32.1 | > 100 | 55.4 | 33.4 |  |  |  |  |  |  |  |  |  |  | 
17 | CC(=O)NNc1nc(C)c(C(/C=C/c2ccc(/C=C/C(=N\NC(=O)c3ccncc3)c3sc(NNC(C)=O)nc3C)cc2)=N/NC(=O)c2ccncc2)s1 | > 100 | > 100 | > 100 | > 100 | > 100 | > 100 | > 100 | > 100 |  |  |  |  |  |  |  |  |  |  |  | 
18 | CCCCNC(=S)Nn1c(-c2ccccc2)nc2ccccc2c1=O | > 100 | > 100 | > 100 | > 100 | > 100 | > 100 | > 100 | > 100 |  |  |  |  |  |  |  |  |  |  |  | 
19 | COc1ccc(C(=O)O/N=C2\CCCC\C2=C/c2ccccc2)cc1 | > 100 | > 100 | > 100 | > 100 |  | > 100 | > 100 | 62 |  |  |  |  |  |  |  |  |  |  |  | 
20 | O=c1[nH]nc(-c2ccccc2)c(-c2ccccc2)c1-n1nc(-c2ccccc2)c2ccccc2c1=O | > 100 | > 100 |  | > 100 | > 100 | > 100 | > 100 | > 100 | > 100 |  |  |  |  |  |  |  |  |  |  | 
21 | COc1ccc([C@H]2c3cc(OC)c(OC)cc3C=C(C=O)C2CO)cc1OC (stereo partly drawn) | > 100 | > 100 | > 100 | > 100 |  | > 100 | > 100 |  | > 100 | 3.02 | 7.44 | 4.74 | 3.51 | 4.23 |  | 52.5 |  |  |  | 4.95
22 | CN(C)C1(C#N)CCC2(CC1)OCCO2 | > 100 | > 100 | > 100 | > 100 | > 100 | > 100 | > 100 | > 100 | > 100 |  |  |  |  |  |  |  |  |  |  | 
23 | C=C1C(=O)OC2C1C(OC(=O)/C(=C/C)COC(C)=O)CC1(CO1)C1C(OC(=O)/C(=C/C)CO)C=C(C)C21 (stereo not drawn) | 24.8 | 2.13 | 11.9 | 9.35 | 3.63 | 5.05 | 31.3 | 15.6 |  |  |  |  |  |  |  |  |  |  |  | 
